PubChem BioAssay AID256 (DTP/NCI, 2004)
“And” between values parts separate entries of the source, which are not always exact repeats. Identical values can stand only once. Inconclusive results and toxic doses are left out. Rule for the calls: active = survival T/C of 150% or more; inactive = T/C below 125% in these data.

System: CD2F1 mice, L1210 leukemia ip, survival T/C
Assay: NCI In Vivo Anticancer Drug Screen. Data for tumor model L1210 Leukemia (intraperitoneal) in CD2F1 (CDF1) mice
Conditions: higher = longer survival
Outline: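 Activity against a transplanted murine tumor was judged by comparing the compound group with a vehicle group. The outcome in the treated animals was divided by that in the controls.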

[1] = endpoint: mean survival time, dose: 100.0 mg/kg/injection, schedule: Q04DX002 (ip), vehicle: saline with Tween-80
[2] = endpoint: mean survival time, dose: 100.0 mg/kg/injection, schedule: Q01DX009 (ip), vehicle: saline with Tween-80
[3] = endpoint: mean survival time, dose: 100.0 mg/kg/injection, schedule: Q04DX003 (ip), vehicle: saline with Tween-80
[4] = endpoint: mean survival time, dose: 200.0 mg/kg/injection, schedule: Q01DX009 (ip), vehicle: saline with Tween-80
[5] = endpoint: mean survival time, dose: 200.0 mg/kg/injection, schedule: Q04DX002 (ip), vehicle: saline with Tween-80
[6] = endpoint: mean survival time, dose: 200.0 mg/kg/injection, schedule: Q04DX003 (ip), vehicle: saline with Tween-80
[7] = endpoint: mean survival time, dose: 400.0 mg/kg/injection, schedule: Q01DX009 (ip), vehicle: saline with Tween-80
[8] = endpoint: mean survival time, dose: 400.0 mg/kg/injection, schedule: Q04DX002 (ip), vehicle: saline with Tween-80
[9] = endpoint: mean survival time, dose: 50.0 mg/kg/injection, schedule: Q01DX009 (ip), vehicle: saline with Tween-80
[10] = endpoint: mean survival time, dose: 100.0 mg/kg/injection, schedule: Q01DX001 (ip), vehicle: saline
[11] = endpoint: mean survival time, dose: 200.0 mg/kg/injection, schedule: Q01DX001 (ip), vehicle: saline
[12] = endpoint: mean survival time, dose: 400.0 mg/kg/injection, schedule: Q01DX001 (ip), vehicle: saline

Measured: T/C

CC1(C)N=C(N)N=C(N)N1c1cccc([N+](=O)[O-])c1
inactive: [1] 96 % of control

OCc1c(Cl)cccc1Cl
inactive: endpoint: mean survival time, dose: 100.0 mg/kg/injection, schedule: Q01DX001 (ip), vehicle: saline with Tween-80 104 % of control | [2] 96 % of control and 102 % of control | [1] 97 % of control and 105 % of control | [3] 103 % of control | endpoint: mean survival time, dose: 200.0 mg/kg/injection, schedule: Q01DX001 (ip), vehicle: saline with Tween-80 102 % of control | [4] 95 % of control and 96 % of control | [5] 97 % of control and 112 % of control | [6] 113 % of control | endpoint: mean survival time, dose: 400.0 mg/kg/injection, schedule: Q01DX001 (ip), vehicle: saline with Tween-80 107 % of control | [7] 101 % of control and 104 % of control | [8] 101 % of control and 109 % of control | endpoint: mean survival time, dose: 400.0 mg/kg/injection, schedule: Q04DX003 (ip), vehicle: saline with Tween-80 103 % of control

CCCC(O)(CC)C1CCCC1C (configuration not stated)
inactive: [9] 100 % of control | [2] 95 % of control | [4] 100 % of control

C=CCCCCCCCCC(=O)NCCCC(OCC)OCC
inactive: [2] 100 % of control | [4] 100 % of control | [7] 98 % of control

COc1nc(C(Cl)(Cl)Cl)c(Cl)c(OC)c1Cl
inactive: endpoint: median survival time, dose: 12.5 mg/kg/injection, schedule: Q01DX009 (ip), vehicle: Klucel (hydroxypropylcellulose) (HPC) 108 % of control | endpoint: median survival time, dose: 25.0 mg/kg/injection, schedule: Q01DX009 (ip), vehicle: Klucel (hydroxypropylcellulose) (HPC) 98 % of control and 103 % of control | endpoint: median survival time, dose: 50.0 mg/kg/injection, schedule: Q01DX005 (ip), vehicle: Klucel (hydroxypropylcellulose) (HPC) 105 % of control and 112 % of control | endpoint: median survival time, dose: 50.0 mg/kg/injection, schedule: Q01DX009 (ip), vehicle: Klucel (hydroxypropylcellulose) (HPC) 106 % of control and 107 % of control | endpoint: median survival time, dose: 67.0 mg/kg/injection, schedule: Q01DX005 (ip), vehicle: Klucel (hydroxypropylcellulose) (HPC) 119 % of control and 102 % of control | endpoint: median survival time, dose: 90.0 mg/kg/injection, schedule: Q01DX005 (ip), vehicle: Klucel (hydroxypropylcellulose) (HPC) 105 % of control | endpoint: median survival time, dose: 120.0 mg/kg/injection, schedule: Q01DX005 (ip), vehicle: Klucel (hydroxypropylcellulose) (HPC) 113 % of control | endpoint: median survival time, dose: 200.0 mg/kg/injection, schedule: Q01DX009 (ip), vehicle: Klucel (hydroxypropylcellulose) (HPC) 115 % of control and 120 % of control

ClC(Cl)(Cl)c1nc2nccnc2[nH]1
inactive: endpoint: mean survival time, dose: 25.0 mg/kg/injection, schedule: Q01DX009 (ip), vehicle: saline sonified 100 % of control | endpoint: mean survival time, dose: 50.0 mg/kg/injection, schedule: Q01DX009 (ip), vehicle: saline sonified 104 % of control | endpoint: mean survival time, dose: 100.0 mg/kg/injection, schedule: Q01DX009 (ip), vehicle: saline sonified 94 % of control

CC1C(C)C1Cl (configuration not stated)
inactive: endpoint: mean survival time, dose: 50.0 mg/kg/injection, schedule: Q01DX005 (ip), vehicle: saline 95 % of control | endpoint: mean survival time, dose: 50.0 mg/kg/injection, schedule: Q01DX009 (ip), vehicle: saline 89 % of control | endpoint: mean survival time, dose: 50.0 mg/kg/injection, schedule: Q04DX002 (ip), vehicle: saline 94 % of control | endpoint: mean survival time, dose: 100.0 mg/kg/injection, schedule: Q01DX005 (ip), vehicle: saline 95 % of control | endpoint: mean survival time, dose: 100.0 mg/kg/injection, schedule: Q01DX009 (ip), vehicle: saline 93 % of control | endpoint: mean survival time, dose: 100.0 mg/kg/injection, schedule: Q04DX002 (ip), vehicle: saline 97 % of control | endpoint: mean survival time, dose: 200.0 mg/kg/injection, schedule: Q01DX005 (ip), vehicle: saline 109 % of control | endpoint: mean survival time, dose: 200.0 mg/kg/injection, schedule: Q01DX009 (ip), vehicle: saline 93 % of control | endpoint: mean survival time, dose: 200.0 mg/kg/injection, schedule: Q04DX002 (ip), vehicle: saline 94 % of control | endpoint: mean survival time, dose: 400.0 mg/kg/injection, schedule: Q01DX005 (ip), vehicle: saline 106 % of control | endpoint: mean survival time, dose: 400.0 mg/kg/injection, schedule: Q01DX009 (ip), vehicle: saline 93 % of control | endpoint: mean survival time, dose: 400.0 mg/kg/injection, schedule: Q04DX002 (ip), vehicle: saline 97 % of control

O=C(O)C1CCCC[N-]1.[Cl][Pd][Cl] (configuration not stated)
inactive: endpoint: mean survival time, dose: 12.5 mg/kg/injection, schedule: Q01DX001 (ip), vehicle: saline 95 % of control | endpoint: mean survival time, dose: 25.0 mg/kg/injection, schedule: Q01DX001 (ip), vehicle: saline 108 % of control | endpoint: mean survival time, dose: 50.0 mg/kg/injection, schedule: Q01DX001 (ip), vehicle: saline 98 % of control | [10] 104 % of control | [11] 109 % of control

Cc1ccc(S(=O)(=O)OCCCCOS(=O)(=O)c2ccc(C)cc2)cc1
inactive: endpoint: mean survival time, dose: 100.0 mg/kg/injection, schedule: Q04DX003 (ip), vehicle: other 105 % of control | endpoint: mean survival time, dose: 200.0 mg/kg/injection, schedule: Q04DX003 (ip), vehicle: other 94 % of control | endpoint: mean survival time, dose: 400.0 mg/kg/injection, schedule: Q04DX003 (ip), vehicle: other 96 % of control

COCC(O)Cn1ccnc1[N+](=O)[O-] (configuration not stated)
inactive: endpoint: mean survival time, dose: 12.5 mg/kg/injection, schedule: Q01DX009 (ip), vehicle: suspension in saline 102 % of control | endpoint: mean survival time, dose: 12.5 mg/kg/injection, schedule: Q01DX009 (ip), vehicle: water 100 % of control | endpoint: mean survival time, dose: 25.0 mg/kg/injection, schedule: Q01DX009 (ip), vehicle: suspension in saline 104 % of control | endpoint: mean survival time, dose: 25.0 mg/kg/injection, schedule: Q01DX009 (ip), vehicle: water 101 % of control | endpoint: mean survival time, dose: 50.0 mg/kg/injection, schedule: Q01DX009 (ip), vehicle: suspension in saline 104 % of control | endpoint: mean survival time, dose: 50.0 mg/kg/injection, schedule: Q01DX009 (ip), vehicle: water 103 % of control | endpoint: mean survival time, dose: 100.0 mg/kg/injection, schedule: Q01DX009 (ip), vehicle: suspension in saline 107 % of control | endpoint: mean survival time, dose: 100.0 mg/kg/injection, schedule: Q01DX009 (ip), vehicle: water 97 % of control | endpoint: mean survival time, dose: 200.0 mg/kg/injection, schedule: Q01DX009 (ip), vehicle: suspension in saline 104 % of control | endpoint: mean survival time, dose: 200.0 mg/kg/injection, schedule: Q01DX009 (ip), vehicle: water 103 % of control | endpoint: mean survival time, dose: 400.0 mg/kg/injection, schedule: Q01DX009 (ip), vehicle: suspension in saline 96 % of control | endpoint: mean survival time, dose: 400.0 mg/kg/injection, schedule: Q01DX009 (ip), vehicle: water 101 % of control

CCCC(C)OC(=O)c1ccc([N+](=O)[O-])cc1 (configuration not stated)
inactive: [10] 100 % of control | [11] 110 % of control | [12] 93 % of control

c1c(NC2=NCCO2)cc2c3c1CCCN3CCC2
inactive: [3] 92 % of control | [6] 97 % of control

Cc1cc(C)c(C(=O)c2no[n+]([O-])c2C(=O)c2c(C)cc(C)c(Br)c2C)c(C)c1Br
inactive: [2] 97 % of control | [4] 97 % of control | [7] 98 % of control

C[N+]1(O)C2CCC1CC(O)C2 (configuration not stated)
inactive: endpoint: mean survival time, dose: 100.0 mg/kg/injection, schedule: Q01DX001 (ip), vehicle: Klucel (hydroxypropylcellulose) (HPC) 97 % of control | endpoint: mean survival time, dose: 200.0 mg/kg/injection, schedule: Q01DX001 (ip), vehicle: Klucel (hydroxypropylcellulose) (HPC) 104 % of control | endpoint: mean survival time, dose: 400.0 mg/kg/injection, schedule: Q01DX001 (ip), vehicle: Klucel (hydroxypropylcellulose) (HPC) 97 % of control

CC(C)(C)/C=C\C=C\C(C)(C)C
inactive: [9] 100 % of control | [2] 103 % of control | [4] 92 % of control

C(=C(\c1ccccc1)N1CCOCC1)/c1ccccc1
inactive: endpoint: mean survival time, dose: 100.0 mg/kg/injection, schedule: Q01DX001 (ip), vehicle: saline sonified 111 % of control | [1] 93 % of control | endpoint: mean survival time, dose: 200.0 mg/kg/injection, schedule: Q01DX001 (ip), vehicle: saline sonified 104 % of control | [5] 96 % of control | endpoint: mean survival time, dose: 400.0 mg/kg/injection, schedule: Q01DX001 (ip), vehicle: saline sonified 102 % of control | [8] 96 % of control

C1CC[N-]CC1.C1CC[N-]CC1.N#C[S-].N#C[S-].[Cu]
inactive: endpoint: mean survival time, dose: 2.5 mg/kg/injection, schedule: Q04DX003 (ip), vehicle: saline with Tween-80 98 % of control | endpoint: mean survival time, dose: 5.0 mg/kg/injection, schedule: Q04DX003 (ip), vehicle: saline with Tween-80 92 % of control

O=C(CBr)c1cc(-c2ccccc2)nc2c(Cl)cc(Cl)cc12
inactive: [10] 100 % of control | [11] 103 % of control | [12] 97 % of control

CCc1ccc(OC2OC(CO)C(OC3OC(CO)C(O)C(O)C3O)C(O)C2O)cc1 (configuration not stated)
inactive: endpoint: mean survival time, dose: 75.0 mg/kg/injection, schedule: Q01DX001 (ip), vehicle: steriod suspending solution 92 % of control | endpoint: mean survival time, dose: 150.0 mg/kg/injection, schedule: Q01DX001 (ip), vehicle: steriod suspending solution 92 % of control | endpoint: mean survival time, dose: 300.0 mg/kg/injection, schedule: Q01DX001 (ip), vehicle: steriod suspending solution 95 % of control

CCCCCC(=O)N1CCCC1
inactive: [3] 98 % of control | [6] 98 % of control
